Results published in patent publication US12441811B2, “Compositions and methods for treating serpin B13 disorders” (REGENTS OF THE UNIVERSITY OF MINNESOTA, priority 2019, dated 2025).

Assays:
[1] = test system: Ngn3+ endocrine progenitor cells; assay: Ngn3+ cells in embryonic pancreas explants (E12.5) cultured in vitro; format: cell-based, mouse; conditions: for number of Ngn3+ endocrine progenitor cells: E12.5 explants, recombinant protein 10 μg/mL, 72 hours vs buffer
Description: Isolation and culture of embryonic pancreas explants. The isolation and culture of embryonic pancreas explants was performed as described elsewhere, with minor modifications.
Processing of pancreatic tissue for immunofluorescence microscopy. The pancreatic tissues were isolated and fixed either overnight (adult pancreases), or for one hour (embryonic pancreas explants), in 2% PFA (pH 7.4), followed by a two-step saturation process: first in a 30% sucrose solution in PBS and then in optimal cutting temperature (OCT) compound. After complete saturation, the tissues were imbedded in OCT using Cryomold and then snap frozen in an ethanol/dry ice bath. The OCT blocks were serially cut through the entire organ to obtain representative sections every 600 μm (6 to 8 sections per adult pancreas), 50 μm (12 to 14 sections per E16.5 embryonic pancreas), 35 μm (10 to 12 sections per E14.5 embryonic pancreas), or 15 μm (10 to 12 sections per E12.5 embryonic pancreas cultured for 1 to 3 days). For the embryonic linage tracing experiments, three largest sections were taken for the analysis. For all other experiments involving immunofluorescence microscopy, all obtained sections were analyzed. […]
The sections from the pancreases of embryos at age E14.5 and E16.5, and newborn pups (OP), were stained with anti-Ngn3 antibody to determine the total number of endocrine progenitors cells for all sections per explant combined (FIG. 9G, FIG. 17A). Alternatively, the sections representing the pancreases of embryos at age E12.5 (which are considerably smaller) were stained with both anti-Ngn3 and anti-CK19 antibodies to determine the fraction of CK19-positive area that was occupied by Ngn3− positive staining (FIGS. 9D, 10A, 10C, 12D, 12G, 12J and FIGS. 15A, 20B). The following formula was used to adjust for any differences in the pancreas size: (Ngn3^+ cell number/μm^2 of CK19^+ cells)×10^5.
Image analysis. Embryonic images were processed with a plugin-Trainable Weka Segmentation v3.2.28 (Hamilton, New Zealand) for ImageJ v.1.52jv software. To classify and quantify the images in unbiased fashion, we defined the following four classes for the analysis: Ngn3^+ cells, the clusters of cytokeratin 19^+ cells, the negatively stained areas, and background (e.g., the area outside of tissue sample). Alternatively, the Visiopharm version 6.0 software (Visiopharm, Hoerholm, Denmark) with Author module was used to create applications to outline Ngn3^+ cells or double positive cells expressing YFP and insulin using preprocessing and postprocessing steps, when necessary. In addition, the Engine module of the Visiophram module was used to execute created applications and unbiasedly analyze the images. For the unbiased quantitative analysis of β-cells and islets in the whole pancreatic sections, Visiopharm Author module was trained to recognize insulin-positive β-cell clusters with diameter greater than 50 μm as well as negatively stained section area. In all studies involving microscopy the treatment assignments were blinded to investigators who performed data analysis.

Notch1 receptor = assay: Examination of Notch1 receptor in embryonic pancreas (Western blot, flow cytometry, qPCR); format: cell-based, mouse
Description: Staining for flow cytometry. BD LSRFortessa X-20, LSR-II and FACSCanto-II were used for FACS analysis. Positive populations of cells were gated and counted using FlowJo ver.10 software. For the islet cells isolated from adult mice, intracellular staining to detect glucagon and insulin was used to count single-positive as well as double-negative cells. In the cells isolated from embryonic pancreas explants, intracellular staining was performed to detect Ngn3, CK19, and active Notch, and extracellular staining was used to detect the extracellular Notch domain, EpCAM, CD31 and CD45.
Western blotting. Pancreatic tissues were processed from E16.5 embryos as single samples and directly used for lysis. Embryonic pancreas explants from E12.5 embryos were cultured in vitro with anti-serpinB13 mAb (or control Ab) for 24 or 48 hours, then, three explant cultures were combined and lysed. The samples were washed two times in ice-cold PBS and lysed with gentle pipetting for 10 minutes with additional tap-vortexing for 15 minutes in RIPA buffer containing Halt protease inhibitors (cat. no. 1862209, Thermo Fisher Scientific). Equal amounts of protein in each sample were run under reducing conditions on Bis-Tris BOLT gradient gel (4-12%) or NUPAGE Tris-acetate gradient gels (4-12%) (both from Thermo Fisher Scientific), and transferred onto […] nitrocellulose or activated PVDF membranes. The membranes were blocked with 5% skim milk and stained with primary and secondary antibodies, as indicated. The Western blots were developed with SuperSignal West Pico Chemiluminescent Substrate or West Femto Maximum Sensitivity Substrate (cat. nos. […] and […], respectively; both from Thermo Scientific), and scanned using the ChemiDoc™ MP Imaging System (Bio-Rad, Hercules, […], USA).
Quantitative real-time PCR. Total RNA from embryonic pancreases was extracted using the RNeasy UCP Micro kit (cat. no. 73934; Qiagen, Hilden, Germany) to measure expression of the Notch1 gene. One hundred to […] of the total RNA per group was reverse transcribed to cDNA using the iScript cDNA Synthesis Kit (cat. no. 1708891; Bio-Rad). Quantitative PCR assays were performed on an Applied Biosystems QuantStudio 3 real-time PCR system using cDNA and the Kapa Sybr Fast reagent (cat. no. 0795959100; Roche). Actin-R was used as a reference gene. The primer sequence for Notch1 was as follows: forward—5′[…]3′ and reverse—5′ […]3′.

| Molecule | number of Ngn3+ endocrine progenitor cells [1] | also measured |
| --- | --- | --- |
| CC(C)C[C@H](NC(=O)[C@H]1O[C@@H]1C(=O)O)C(=O)NCCCCN=C(N)N [Clone E64, reference compound] |  | size of the Ngn3+ cell population ([1]; E12.5 WT explants, E64 10 μM, 48 hours vs DMSO): significantly reduced; mAb-induced Notch1 degradation fragments in presence of protease inhibitor (Notch1 receptor; E64 1 μM with antibody for 48 hours): almost completely prevented |
| chicken ovalbumin: non-inhibitory structural homolog and founding member of the clade B serpin family, used as control [reference compound] | not |  |
| recombinant CatL: recombinant mouse cathepsin L |  | Ngn3 cells ([1]; recombinant mouse cathepsin L 2.5 μg/mL for 4 hours vs buffer): induced additional; cleavage of the extracellular domain of Notch1 (Notch1 receptor; recombinant CatL 2.5 μg/mL for last 4 hours of 48-hour incubation): cleaved |
| recombinant serpinB13 protein: recombinant serpinB13 (mouse and human not distinguished at this place) (protein) MDSLGAVSTRLGFDLFKELKKTNDGNIFFSPVGILTAIGMVLLGTRGATASQLEEVFHSEKETKSSRIKAEEKEVIENTEAVHQQFQKFLTEISKLTNDYELNITNRLFGEKTYLFLQKYLDYVEKYYHASLEPVDFVNAADESRKKINSWVESKTNEKIKDLFPDGSISSSTKLVLVNMVYFKGQWDREFKKENTKEEKFWMNKSTSKSVQMMTQSHSFSFTFLEDLQAKILGIPYKNNDLSMFVLLPNDIDGLEKIIDKISPEKLVEWTSPGHMEERKVNLHLPRFEVEDGYDLEAVLAAMGMGDAFSEHKADYSGMSSGSGLYAQKFLHSSFVAVTEEGTEAAAATGIGFTVTSAPGHENVHCNHPFLFFIRHNESNSILFFGRFSSP | downregulate |  |
| human recombinant serpinB13: recombinant human serpinB13 expressed in baculovirus (protein) MDSLGAVSTRLGFDLFKELKKTNDGNIFFSPVGILTAIGMVLLGTRGATASQLEEVFHSEKETKSSRIKAEEKEVIENTEAVHQQFQKFLTEISKLTNDYELNITNRLFGEKTYLFLQKYLDYVEKYYHASLEPVDFVNAADESRKKINSWVESKTNEKIKDLFPDGSISSSTKLVLVNMVYFKGQWDREFKKENTKEEKFWMNKSTSKSVQMMTQSHSFSFTFLEDLQAKILGIPYKNNDLSMFVLLPNDIDGLEKIIDKISPEKLVEWTSPGHMEERKVNLHLPRFEVEDGYDLEAVLAAMGMGDAFSEHKADYSGMSSGSGLYAQKFLHSSFVAVTEEGTEAAAATGIGFTVTSAPGHENVHCNHPFLFFIRHNESNSILFFGRFSSP | significant drop |  |
| mouse recombinant serpinB13: recombinant serpinB13 of mouse (protein) MDSLGTAATQFLFDLFKELNKTNDGNVFFSPVGISTAIGMIILGTRGATASELQKVLYTEQGTESSRIKSEEEEIEKREEIHHQLQMLLTEISKFSNDYDLIISNRLFGEKTYLFLQKYIDYVEKYYHASLEPVDFVNAADESRKKINSWVESQTNVKVKDLFPEGSLNSSTKLVLINTVYFKGLWDREFKKEHTKEEDFWLNKNLSKPVQMMALCSSFNFTFLEDLQAKIVGIPYKNNDISMFVLLPNDIDGLEKIMDKMSPEKLVEWTSPGHLEQRRVDLRLPRLQVEETYDLEPVLEAVGIHSAFSEHADYSGMSARSGLHAQNFLHRSFLVVTEEGVEATAGTGVGLKVSSAASCELVHCNHPFLFFIRHRESDSILFFGKFSSP | significant drop |  |
